From ChEMBL document CHEMBL1201861, “Genomics of Drug Sensitity in Cancer screening data, Wellcome Trust Sanger Institute”

Assays:
Assay type in all cases: functional, cell-based
[1] = system: SiHa; assay: cells; settings: Homo sapiens;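 note: Viability-based readout of growth inhibition in SiHa cells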
Description: SANGER: Inhibition of human SiHa cell growth in a cell viability assay.

[2] = system: DMS-273; assay: cells; settings: Homo sapiens
Description: SANGER: Inhibition of human DMS-273 cell growth in a cell viability assay.

[3] = system: HCC1954; assay: cells; settings: Homo sapiens;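 note: growth inhibition of human HCC1954 cells, read out with a cell viability assay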
Description: SANGER: Inhibition of human HCC1954 cell growth in a cell viability assay.

[4] = system: 8305C; assay: cells; settings: Homo sapiens
Description: SANGER: Inhibition of human 8305C cell growth in a cell viability assay.

[5] = system: MKN-1; assay: cells; settings: Homo sapiens;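 note: growth inhibition of human MKN1 cells, read out by a cell viability measurement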
Description: SANGER: Inhibition of human MKN1 cell growth in a cell viability assay.

[6] = system: NCI-H2087; assay: cells; settings: Homo sapiens;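 note: growth inhibition determined with a cell viability readout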
Description: SANGER: Inhibition of human NCI-H2087 cell growth in a cell viability assay.

[7] = system: A2780; assay: cells; settings: Homo sapiens;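 note: growth inhibition of A2780 cells, read out with a cell viability assay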
Description: SANGER: Inhibition of human A2780 cell growth in a cell viability assay.

[8] = system: 786-0; assay: cells; settings: Homo sapiens
Description: SANGER: Inhibition of human 786-0 cell growth in a cell viability assay.

[9] = system: HuP-T3; assay: cells; settings: Homo sapiens;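 note: HuP-T3 cell growth inhibition, read out with a cell viability assay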
Description: SANGER: Inhibition of human HuP-T3 cell growth in a cell viability assay.

[10] = system: HOS; assay: cells; settings: Homo sapiens;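 note: growth inhibition of human HOS cells, read out with a cell viability assay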
Description: SANGER: Inhibition of human HOS cell growth in a cell viability assay.

[11] = system: A-431; assay: cells; settings: Homo sapiens;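 note: growth inhibition of A-431 cells, determined with a cell viability read-out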
Description: SANGER: Inhibition of human A431 cell growth in a cell viability assay.

[12] = system: BCPAP; assay: cells; settings: Homo sapiens;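 note: growth inhibition of BCPAP cells, read out in a cell viability assay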
Description: SANGER: Inhibition of human BCPAP cell growth in a cell viability assay.

[13] = system: D-392MG; assay: cells; settings: Homo sapiens
[14] = system: MDA-MB-361; assay: cells; settings: Homo sapiens
[15] = system: H4; assay: cells; settings: Homo sapiens
Description: SANGER: Inhibition of human H4 cell growth in a cell viability assay.

[16] = system: SK-OV-3; assay: cells; settings: Homo sapiens;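 note: growth inhibition of SK-OV-3 human cells, read out with a cell viability assay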
Description: SANGER: Inhibition of human SK-OV-3 cell growth in a cell viability assay.

[17] = system: BEN; assay: cells; settings: Homo sapiens;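 note: growth inhibition of the BEN cell line, read out with a cell viability assay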
Description: SANGER: Inhibition of human BEN cell growth in a cell viability assay.

[18] = system: NCI-H810; assay: cells; settings: Homo sapiens;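 note: IC50 reflects inhibition of cancer cell line growth, read out with a cell viability assay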
Description: SANGER: Inhibition of human NCI-H810 cell growth in a cell viability assay.

[19] = system: NCI-H460; assay: cells; settings: Homo sapiens;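 note: cell viability assay scoring growth inhibition of human NCI-H460 cells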
Description: SANGER: Inhibition of human NCI-H460 cell growth in a cell viability assay.

[20] = system: A2058; assay: cells; settings: Homo sapiens;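 note: reduction of A2058 cell growth, read out with a viability assay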
Description: SANGER: Inhibition of human A2058 cell growth in a cell viability assay.

[21] = system: HCC 2998; assay: cells; settings: Homo sapiens;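 note: growth inhibition of human HCC2998 cells, measured with a cell viability read-out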
Description: SANGER: Inhibition of human HCC2998 cell growth in a cell viability assay.

[22] = system: VM-CUB-1; assay: cells; settings: Homo sapiens;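 note: cell viability assay measuring growth inhibition of the human VM-CUB-1 cell line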
Description: SANGER: Inhibition of human VM-CUB-1 cell growth in a cell viability assay.

[23] = system: 23132-87; assay: cells; settings: Homo sapiens
Description: SANGER: Inhibition of human 23132-87 cell growth in a cell viability assay.

[24] = system: MC-IXC; assay: cells; settings: Homo sapiens;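 note: growth inhibition of MC-IXC cells, read out with a cell viability assay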
Description: SANGER: Inhibition of human MC-IXC cell growth in a cell viability assay.

[25] = system: MDA-MB-231; assay: cells; settings: Homo sapiens
Description: SANGER: Inhibition of human MDA-MB-231 cell growth in a cell viability assay.

[26] = system: MEL-HO; assay: cells; settings: Homo sapiens
Description: SANGER: Inhibition of human MEL-HO cell growth in a cell viability assay.

[27] = system: A-427; assay: cells; settings: Homo sapiens;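 note: growth inhibition of human A-427 cells, read out by a cell viability assay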
Description: SANGER: Inhibition of human A427 cell growth in a cell viability assay.

[28] = system: Daoy; assay: cells; settings: Homo sapiens;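 note: daoy cell growth inhibition, read out as cell viability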
Description: SANGER: Inhibition of human Daoy cell growth in a cell viability assay.

[29] = system: Calu-3; assay: cells; settings: Homo sapiens;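 note: growth inhibition of human Calu-3 cells, determined with a cell viability assay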
Description: SANGER: Inhibition of human Calu-3 cell growth in a cell viability assay.

[30] = system: Huh-7; assay: cells; settings: Homo sapiens;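 note: HuH-7 cell growth inhibition, read out with a cell viability assay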
Description: SANGER: Inhibition of human HuH-7 cell growth in a cell viability assay.

[31] = system: ASPC1; assay: cells; settings: Homo sapiens;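 note: growth inhibition of AsPC-1 cells, read out with a cell viability assay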
Description: SANGER: Inhibition of human AsPC-1 cell growth in a cell viability assay.

[32] = system: YKG-1; assay: cells; settings: Homo sapiens;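 note: cell growth inhibition, read out with a viability assay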
Description: SANGER: Inhibition of human YKG-1 cell growth in a cell viability assay.

[33] = system: COLO-792; assay: cells; settings: Homo sapiens
Description: SANGER: Inhibition of human COLO-792 cell growth in a cell viability assay.

[34] = system: SW1710; assay: cells; settings: Homo sapiens;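 note: growth inhibition of SW1710 cells, determined with a cell viability assay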
Description: SANGER: Inhibition of human SW1710 cell growth in a cell viability assay.

[35] = system: SN12C; assay: cells; settings: Homo sapiens;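 note: growth inhibition of human SN12C cells, measured by a cell viability assay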
Description: SANGER: Inhibition of human SN12C cell growth in a cell viability assay.

[36] = system: HCC38; assay: cells; settings: Homo sapiens;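 note: cell viability assay on the human HCC38 cell line, with IC50 marking the concentration that inhibits cell growth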
Description: SANGER: Inhibition of human HCC38 cell growth in a cell viability assay.

[37] = system: AN3-CA; assay: cells; settings: Homo sapiens;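 note: growth inhibition of human AN3-CA cells measured by a cell viability assay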
Description: SANGER: Inhibition of human AN3-CA cell growth in a cell viability assay.

[38] = system: NCI-H630; assay: cells; settings: Homo sapiens;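 note: growth inhibition of NCI-H630 cells, read out with a cell viability assay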
Description: SANGER: Inhibition of human NCI-H630 cell growth in a cell viability assay.

[39] = system: KU-19-19; assay: cells; settings: Homo sapiens
Description: SANGER: Inhibition of human KU-19-19 cell growth in a cell viability assay.

[40] = system: HuP-T4; assay: cells; settings: Homo sapiens;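 note: cell viability assay measuring how much HuP-T4 cell growth is inhibited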
Description: SANGER: Inhibition of human HuP-T4 cell growth in a cell viability assay.

[41] = system: NCI-H1793; assay: cells; settings: Homo sapiens;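 note: cell growth inhibition, read out by a cell viability assay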
Description: SANGER: Inhibition of human NCI-H1793 cell growth in a cell viability assay.

[42] = system: KP-N-YN; assay: cells; settings: Homo sapiens;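 note: growth inhibition of KP-N-YN cells, read out with a cell viability assay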
Description: SANGER: Inhibition of human KP-N-YN cell growth in a cell viability assay.

[43] = system: HO-1-N-1; assay: cells; settings: Homo sapiens;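 note: growth inhibition of human HO-1-N-1 cells, read out with a cell viability assay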
Description: SANGER: Inhibition of human HO-1-N-1 cell growth in a cell viability assay.

[44] = system: HSC-2; assay: cells; settings: Homo sapiens;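 note: growth inhibition of human HSC-2 cells, read out by a cell viability assay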
Description: SANGER: Inhibition of human HSC-2 cell growth in a cell viability assay.

[45] = system: OAW-42; assay: cells; settings: Homo sapiens;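 note: growth inhibition of OAW-42 cells, read out with a cell viability assay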
Description: SANGER: Inhibition of human OAW-42 cell growth in a cell viability assay.

[46] = system: NCI-H358; assay: cells; settings: Homo sapiens;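 note: growth inhibition of NCI-H358 human cells, read out with a cell viability assay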
Description: SANGER: Inhibition of human NCI-H358 cell growth in a cell viability assay.

[47] = system: Daudi; assay: cells; settings: Homo sapiens;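 note: growth inhibition of Daudi cells, read out by a viability assay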
Description: SANGER: Inhibition of human Daudi cell growth in a cell viability assay.

[48] = system: SK-MM-2; assay: cells; settings: Homo sapiens;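 note: growth inhibition of human SK-MM-2 cells, read out with a cell viability assay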
Description: SANGER: Inhibition of human SK-MM-2 cell growth in a cell viability assay.

[49] = system: NCI-H1436; assay: cells; settings: Homo sapiens;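 note: growth suppression of human NCI-H1436 cells, determined with a cell viability readout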
Description: SANGER: Inhibition of human NCI-H1436 cell growth in a cell viability assay.

[50] = system: NALM-6; assay: cells; settings: Homo sapiens;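 note: growth inhibition of NALM-6 cells, read out with a cell viability assay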
Description: SANGER: Inhibition of human NALM-6 cell growth in a cell viability assay.

[51] = system: SCLC-21H; assay: cells; settings: Homo sapiens;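 note: growth inhibition of cultured human SCLC-21H cells, read out with a cell viability assay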
Description: SANGER: Inhibition of human SCLC-21H cell growth in a cell viability assay.

[52] = system: ST486; assay: SANGER: Inhibition of human ST486 cell growth in a cell viability assay.
[53] = system: L-540; assay: cells; settings: Homo sapiens;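 note: growth inhibition of the human L-540 cell line, read out with a viability assay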
Description: SANGER: Inhibition of human L-540 cell growth in a cell viability assay.

[54] = system: NCI-H64; assay: cells; settings: Homo sapiens;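 note: growth inhibition of NCI-H64 cells, read out with a cell viability assay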
Description: SANGER: Inhibition of human NCI-H64 cell growth in a cell viability assay.

[55] = system: NCI-H2196; assay: cells; settings: Homo sapiens;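 note: cell viability assay used as the readout of growth inhibition in NCI-H2196 cells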
Description: SANGER: Inhibition of human NCI-H2196 cell growth in a cell viability assay.

[56] = system: SIMA; assay: cells; settings: Homo sapiens;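 note: growth inhibition of SIMA cells, measured with a cell viability readout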
Description: SANGER: Inhibition of human SIMA cell growth in a cell viability assay.

[57] = system: EB-3; assay: cells; settings: Homo sapiens;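 note: human EB-3 cells, growth inhibition read out via a cell viability assay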
Description: SANGER: Inhibition of human EB-3 cell growth in a cell viability assay.

[58] = system: CMK; assay: cells; settings: Homo sapiens;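 note: growth inhibition of CMK cells, read out as cell viability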
Description: SANGER: Inhibition of human CMK cell growth in a cell viability assay.

[59] = system: SR; assay: cells; settings: Homo sapiens
Description: SANGER: Inhibition of human SR cell growth in a cell viability assay.

[60] = system: COR-L279; assay: SANGER: Inhibition of human COR-L279 cell growth in a cell viability assay.
[61] = system: NCI-H716; assay: cells; settings: Homo sapiens;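 note: growth inhibition of human NCI-H716 cells, measured by a cell viability assay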
Description: SANGER: Inhibition of human NCI-H716 cell growth in a cell viability assay.

[62] = system: SNU-C1; assay: cells; settings: Homo sapiens;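 note: growth inhibition of SNU-C1 human cells, read out by a cell viability assay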
Description: SANGER: Inhibition of human SNU-C1 cell growth in a cell viability assay.

[63] = system: TE-441-T; assay: cells; settings: Homo sapiens
Description: SANGER: Inhibition of human TE-441-T cell growth in a cell viability assay.

[64] = system: BOKU; assay: cells; settings: Homo sapiens;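 note: growth inhibition of the human BOKU cell line, read out by a cell viability assay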
Description: SANGER: Inhibition of human BOKU cell growth in a cell viability assay.

[65] = system: KMS-12-PE; assay: cells; settings: Homo sapiens;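 note: growth inhibition of human KMS-12-PE cells, measured with a cell viability assay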
Description: SANGER: Inhibition of human KMS-12-PE cell growth in a cell viability assay.

Measured: IC50

Cn1cc(/C=C2\C(=O)Nc3cccnc32)c2ccccc21
0.397 µM: [16]
not listed: [47] | [48] | [49] | [50] | [51] | [52] | [53] | [54] | [55] | [56] | [57] | [58] | [59] | [60] | [61] | [62] | [63] | [64] | [65]
> 2 µM: all other assays above

COc1cc(C)c(Sc2cnc(NC(=O)c3ccc(CNC(C)C(C)(C)C)cc3)s2)cc1C(=O)N1CCN(C(C)=O)CC1 (stereo not drawn)
10 µM: [50]
> 10.2 µM: [47] | [48] | [49] | [51] | [52] | [53] | [54] | [55] | [56] | [57] | [58] | [59] | [60] | [61] | [62] | [63] | [64] | [65]

NC(=O)c1ncn([C@@H]2O[C@H](COP(=O)(O)O)[C@@H](O)[C@H]2O)c1N
1350 µM: [9]
1920 µM: [29]
733 µM: [12]
673 µM: [22]
1780 µM: [24]
1860 µM: [7]
1360 µM: [19]
397 µM: [26]
1330 µM: [31]
552 µM: [32]
1080 µM: [8]
1310 µM: [14]
793 µM: [43]
846 µM: [44]
1510 µM: [28]
not listed: [47] | [48] | [49] | [50] | [51] | [52] | [53] | [54] | [55] | [56] | [57] | [58] | [59] | [60] | [61] | [62] | [63] | [64] | [65]
> 2000 µM: all other assays above

Cc1n[nH]c2ccc(-c3cncc(OC[C@@H](N)Cc4c[nH]c5ccccc45)c3)cc12 [A-443654]
0.623 µM: [48]
0.184 µM: [59]
0.128 µM: [50]
0.477 µM: [49]
0.355 µM: [47]
0.798 µM: [63]
0.57 µM: [60]
> 1.02 µM: [51] | [54] | [56] | [61] | [62] | [64] | [65]
0.275 µM: [58]
0.648 µM: [55]
0.334 µM: [57]
0.346 µM: [53]
0.204 µM: [52]

Cc1nc(Nc2ncc(C(=O)Nc3c(C)cccc3Cl)s2)cc(N2CCN(CCO)CC2)n1 [DASATINIB]
0.193 µM: [50]
0.491 µM: [64]
> 1.28 µM: [47] | [48] | [49] | [51] | [52] | [53] | [54] | [55] | [56] | [57] | [58] | [59] | [60] | [61] | [62] | [63] | [65]

Cc1[nH]c(/C=C2\C(=O)Nc3ccc(S(=O)(=O)Cc4c(Cl)cccc4Cl)cc32)c(C)c1C(=O)N1CCC[C@@H]1CN1CCCC1 [PHA-665752]
> 2 µM: [47] | [48] | [49] | [50] | [51] | [52] | [53] | [54] | [55] | [56] | [57] | [58] | [59] | [60] | [61] | [62] | [63] | [64] | [65]
